Measurements published in US20170065667A1, “METHODS FOR SYNCHRONIZATION OF ESTROUS CYCLES AND OVULATION FOR FIXED TIME ARTIFICIAL INSEMINATION IN CATTLE” (Parnell Technologies Pty Ltd., priority 2014, published 2017).
“And” between values parts separate entries of the source, which are not always exact repeats. Equal values may be shown once.

Tested on: lactating Holstein cows
Assay: Experiment 1: pregnancies per AI (P/AI) after one vs. two cloprostenol sodium injections in Double-Ovsynch, FTAI
Type: in vivo, cattle
Conditions: for P/AI: quartiles 2, 3 and 4 combined
Protocol: An experiment was conducted to determine the effectiveness of the exogenous administration of hormones for synchronizing the estrous cycles of lactating dairy cattle and resulting pregnancy rates subsequent to FTAI. A total of 373 lactating Holstein cows (172 primiparous, 201 multiparous) were synchronized with a Double-Ovsynch program comprising a first or presynchronization Ovsynch phase followed by a second Ovsynch phase. All animals were synchronized using a GnRH composition (about 100 mcg of gonadorelin acetate per mL, GONAbreed®, Parnell Technologies Pty Ltd, Alexandria, Australia) and a PGF2α analog composition (about 250 mcg of cloprostenol sodium per mL, estroPLAN®, Parnell Technologies Pty Ltd, Alexandria, Australia). The first Ovsynch phase began at about 51 to about 57 days in milk where the cows received a first 1 mL intramuscular injection of a gonadorelin acetate composition. At about 58 to about 64 days in milk, the cows received a first 2 mL intramuscular injection of a cloprostenol sodium composition. At about 61 to about 67 days in milk, the cows received a second 1 mL intramuscular injection of a gonadorelin acetate composition concluding the first Ovsynch phase. The animals were then synchronized with a second Ovsynch phase comprising an Ovsynch-56 protocol beginning at about 68 to about 74 days in milk where the cows received a third 1 mL intramuscular injection of gonadorelin acetate composition. At about 75 to about 81 days in milk, the animals received a second 2 mL intramuscular injection of a cloprostenol sodium composition. At about 77 to about 83 days in milk (about 56 hours after the second injection of a cloprostenol sodium composition), the animals received a fourth 1 mL intramuscular injection of a gonadorelin acetate composition. And at about 78 to about 84 days in milk (about 16 hours after the fourth injection of the gonadorelin acetate composition), the animals receive AI, concluding the second Ovsynch phase. […] The experimental protocol is shown in the diagram of FIG. 2. Statistical analyses were performed with SAS (SAS Institute, 2006). Variables with a binomial distribution, such as P/AI and percentage of animals with CL regression, were analyzed by logistic regression using the LOGISTIC procedure. One-tailed comparisons were utilized throughout the study for comparison of the effect of an additional cloprostenol sodium injection on CL regression and animals pregnant to the FTAI. Continuous variables were analyzed using ANOVA with logistic regression utilized to compare the relationship between circulating P4 and the binomial traits. Animals with ≦2.0 ng/mL P4 on day of PGF were removed from the analysis (n=29; 13 primiparous, 16 multiparous) due to lack of synchronization to the double Ovsynch protocol. Therefore, all analyses were done with a total of 344 lactating dairy cows (n=159 primiparous; n=185 multiparous). Statistical differences were considered significant for P≦0.05 and as a tendency for P≦0.15.

Question: How did the “Effect of PGF, relative difference in P/AI (two minus one, divided by one)” value (multiparous) turn out when `O=C(O)CCC/C=C\CC1C(O)CC(O)C1/C=C/C(O)COc1cccc(Cl)c1` (stereo not shown) [cloprostenol sodium] was run?
Answer: 18.9% (P = 0.15)

Question: What about the “Pregnant/AI, % (n/n)” value (one injection, Quartile 1, [P4] 2.0-4.8 at first injection) of the same compound?
Answer: 31.0% and 31.0 (13/42) %

Question: What about the “Pregnant/AI, % (n/n)” value (one injection, Quartile 2, [P4] 4.9-6.7) of the same compound?
Answer: 40.0% and 40.0 (18/45) %

Question: And the “Pregnant/AI, % (n/n)” value (one injection, Quartile 3, [P4] 6.8-8.7)?
Answer: 47.7% and 47.7 (21/44) %

Question: What about the “Pregnant/AI, % (n/n)” value (one injection, Quartile 4, [P4] 8.8-12) of the same compound?
Answer: 44.4% and 44.4 (20/45) %

Question: And the “percentage of cows pregnant/AI (P/AI)” value (one injection, multiparous)?
Answer: 37.5% (36/96)

Question: What about the “percentage of cows pregnant/AI (P/AI)” value (one injection, overall) of the same compound?
Answer: 40.1% (72/176)

Question: What about the “percentage of cows pregnant/AI (P/AI)” value (one injection, primiparous) of the same compound?
Answer: 45.0% (36/80)

Question: What about the P/AI (one injection) of the same compound?
Answer: 44.0%

Question: And the “Effect of PGF, relative difference in P/AI (two minus one, divided by one)” value (overall)?
Answer: 15.2% (P = 0.13)

Question: What about the “Effect of PGF, relative difference in P/AI (two minus one, divided by one)” value (primiparous) of the same compound?
Answer: 7.11% (P = 0.35)

Question: And the “Pregnant/AI, % (n/n)” value (two injections, Quartile 1, [P4] 2.0-5.4 at first injection)?
Answer: 31.7% and 31.7 (13/41) %

Question: What about the “Pregnant/AI, % (n/n)” value (two injections, Quartile 2, [P4] 5.5-7.0) of the same compound?
Answer: 46.7% and 46.7 (21/45) %

Question: What about the “Pregnant/AI, % (n/n)” value (two injections, Quartile 3, [P4] 7.1-8.6) of the same compound?
Answer: 55.8% and 55.8 (24/43) %

Question: And the “Pregnant/AI, % (n/n)” value (two injections, Quartile 4, [P4] 8.7-12)?
Answer: 56.4% and 56.4 (22/39) %

Question: What about the “percentage of cows pregnant/AI (P/AI)” value (two injections, multiparous) of the same compound?
Answer: 44.6% (41/89)

Question: And the “percentage of cows pregnant/AI (P/AI)” value (two injections, overall)?
Answer: 46.2% (80/168)

Question: What about the “percentage of cows pregnant/AI (P/AI)” value (two injections, primiparous) of the same compound?
Answer: 48.2% (39/79)

Question: And the P/AI (two injections)?
Answer: 52.8%
